# Experimental data taken from US9394561B2, “Cyclic peptide production” (National Research Council of Canada, priority 2011, dated 2016).
# “Also recorded” adds a separate entry of the source. Square brackets hold non-standard residues; d marks the D form. Ends that are not written are not given here.
# Tests used:
# S. vaccaria PCY1 = experiment: In vitro assay of recombinant S. vaccaria PCY1 with wild type and mutant presegetalin substrates, products detected by LC/MS; type: biochemical, Saponaria vaccaria; parameters: key to CP (cyclic peptide product detected by LC/MS after in vitro assay) / LP (linear peptide product detected by LC/MS after in vitro assay): +=presence; −=absence; conditions: for cyclic peptide production by S. vaccaria PCY1 (in words) / linear peptide production by S. vaccaria PCY1 (in words): LC/MS and MS/MS; for CP (cyclic peptide product detected by LC/MS after in vitro assay) / LP (linear peptide product detected by LC/MS after in vitro assay): substrates tested for cyclization by S. vaccaria PCY1
# Sequence of S. vaccaria PCY1 (as listed by the source): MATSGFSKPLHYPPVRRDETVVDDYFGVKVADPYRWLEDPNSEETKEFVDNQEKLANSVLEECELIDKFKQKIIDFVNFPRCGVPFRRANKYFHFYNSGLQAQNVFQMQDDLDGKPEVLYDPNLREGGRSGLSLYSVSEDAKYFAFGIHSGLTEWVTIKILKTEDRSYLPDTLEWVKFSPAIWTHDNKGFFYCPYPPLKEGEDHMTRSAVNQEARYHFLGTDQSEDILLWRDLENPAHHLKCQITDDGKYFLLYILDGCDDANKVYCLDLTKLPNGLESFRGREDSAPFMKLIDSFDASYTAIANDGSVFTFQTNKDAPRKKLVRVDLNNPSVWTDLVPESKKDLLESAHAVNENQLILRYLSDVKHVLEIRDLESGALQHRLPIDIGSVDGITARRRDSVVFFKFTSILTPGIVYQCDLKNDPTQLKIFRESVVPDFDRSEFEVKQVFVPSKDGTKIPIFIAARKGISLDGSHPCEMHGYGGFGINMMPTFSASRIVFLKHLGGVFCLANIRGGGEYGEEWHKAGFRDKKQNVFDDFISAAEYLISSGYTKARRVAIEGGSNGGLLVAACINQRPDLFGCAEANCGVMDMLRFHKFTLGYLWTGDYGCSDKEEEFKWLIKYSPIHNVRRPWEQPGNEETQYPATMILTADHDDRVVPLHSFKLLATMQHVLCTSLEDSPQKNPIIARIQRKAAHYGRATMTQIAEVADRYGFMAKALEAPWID
# Protocol: The gene corresponding to S. vaccaria PCY1 was cloned and expressed in E. coli with a His-tag. HisPur Cobalt Resin™ (Thermo Scientific) was used for purification of recombinant PCY1. The purified PCY1 was quantified using BCA method (Pierce; http://http://www.piercenet.com/) with BSA as a calibration standard. The in vitro assay contained 20 mM Tris buffer (pH 8.5), 100 mM NaCl, 5 mM DTT, 0.2 mg BSA, and 1.5 μg of substrates (wild type and mutant presegetalins, procured from Bio Basic Inc with >90% purity) and was initiated by the addition of 0.3 μg of PCY1, in a total reaction volume of 100 μl. The assay was incubated at 30° C. for up to 1 h and stopped by placing reactions in dry ice. The assays were lyophilized, re-suspended in methanol, evaporated and re-suspended in 50:50 v/v methanol/water for LC/MS analysis.
# Ion trap ESI+ LC/MS/MS analysis was used to detect production of cyclic peptides using an Agilent 6320 Ion Trap LC/MS system under default Smart Parameter settings. The analyzer and ion optics were adjusted to achieve proper resolution (Agilent Installation Guide #G2440-90105) using the ESI Tuning Mix (Agilent #G2431A). The mass spectrometer scanned from 50 to 2200 mass units at 8100 mass units sec^−1 with an expected peak width of 0.35 atomic mass units. For auto MS/MS, the trap isolation width was 4 atomic mass units. The associated Agilent 1200 LC was fitted with a Zorbax 300 EXTEND-C18 column (150×2.1 mm, 3.5 μm particle size) maintained at 35° C. The binary solvent system consisted of 90:10 v/v water/acetonitrile containing 0.1% formic acid and 0.1% ammonium formate (solvent A) and 10:90 v/v water/acetonitrile containing 0.1% formic acid and 0.1% ammonium formate (solvent B). The separation gradient was 90:10 A/B to 50:50 A/B in 3 ml over 20 min.
# In order to characterize substrate specificity of PCY1 and understand the segetalin A biosynthetic mechanism, a total of 44 substrates (Table 3) were tested for the PCY1 activity and the results are briefly summarized in Table 3. The last two columns in Table 3 summarize product type detected by LC/MS after in vitro assays (CP is cyclic peptide and LP is linear peptide, +=presence, −=absence, NA=not applicable). The 44 substrates were classified as follows: • (A) Presegetalin A1 [14,32], a wild type (WT) precursor of segetalin A • (B) Truncated mutants of presegetalin A1[14,32] • (C) Alanine scanning mutants corresponding to variants of the mature segetalin A sequence • (D) Alanine scanning mutants of the C-terminal region of presegetalin A1[14,32] • (E) D-amino acid mutants corresponding to variants of the mature segetalin A sequence • (F) Insertion mutants corresponding to variants of the mature segetalin A sequence • (G) Other A-class and F-class presegetalins • (H) Putative cyclic peptide precursors from Dianthus caryophyllus
# [1] = system: Dianthus superbus PCY1-c1141; experiment: In vitro assay of recombinant Dianthus superbus PCY1-c1141 with presegetalin substrates, LC/MS; type: biochemical
# Sequence of Dianthus superbus PCY1-c1141 (as listed by the source): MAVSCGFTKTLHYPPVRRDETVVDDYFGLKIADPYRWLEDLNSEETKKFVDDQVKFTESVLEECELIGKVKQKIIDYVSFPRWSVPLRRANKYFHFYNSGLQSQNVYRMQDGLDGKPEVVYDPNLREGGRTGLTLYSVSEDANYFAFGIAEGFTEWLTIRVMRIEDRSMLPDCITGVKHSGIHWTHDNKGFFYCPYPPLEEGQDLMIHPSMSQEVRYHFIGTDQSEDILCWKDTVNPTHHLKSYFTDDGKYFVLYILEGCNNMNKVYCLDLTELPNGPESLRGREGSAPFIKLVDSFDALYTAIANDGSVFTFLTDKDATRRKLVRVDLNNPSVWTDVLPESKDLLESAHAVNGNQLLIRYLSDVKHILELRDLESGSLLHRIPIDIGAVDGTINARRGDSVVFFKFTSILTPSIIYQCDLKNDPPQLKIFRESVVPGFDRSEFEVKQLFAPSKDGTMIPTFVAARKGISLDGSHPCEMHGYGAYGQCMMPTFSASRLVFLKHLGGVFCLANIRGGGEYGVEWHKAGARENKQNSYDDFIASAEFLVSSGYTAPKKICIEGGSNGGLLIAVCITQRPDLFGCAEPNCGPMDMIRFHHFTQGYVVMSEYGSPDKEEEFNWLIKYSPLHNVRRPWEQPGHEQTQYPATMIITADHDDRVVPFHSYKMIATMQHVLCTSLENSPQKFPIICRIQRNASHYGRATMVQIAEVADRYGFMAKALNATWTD
# Source text: (§1) To test for activity of the homologues of S. vaccaria PCY1, two cDNAs encoding were cloned from Dianthus superbus (c250 and c1141 contigs) and one from Silene vulgaris (c150 contig) essentially as described for Saponaria vaccaria PCY1 in Example 2. These were named Dianthus superbus Pcy1-c250, Dianthus superbus Pcy1-c1141 and Silene vulgaris Pcy1-c150, Briefly, gene specific forward and reverse primers were used to PCR amplify the aforementioned contigs based on homologue identification in EST collections from Dianthus leaves and Silene roots. The Dianthus superbus (c250 and c1141 contigs) and Silene vulgaris (c150 contig) PCY1 homologues were assayed with 15 μg/mL presegetalin A1[14,32] in vitro as previously described for semi-purified plant extracts to determine whether they can catalyze the production of segetalin A from presegetalin A1[14,32]. The assays were initiated by the addition of 120 ng (c250), or 138 ng (c1141) purified recombinant Dianthus superbus or 4 μg Silene vulgaris Pcy1 respectively, in a total reaction volume of 100 μL. […] Thus, there are additional enzymes in the Caryophyllaceae family, which have the same enzymatic activity as S. vaccaria PCY1.
# Seven mutant peptides containing D-amino acids were synthesized (No. 26 to 32 in Table 3) and tested with S. vaccaria PCY1 under optimized in vitro conditions. In initial experiments, each amino acid corresponding to segetalin A was substituted with its D-amino acid consecutively from position 15 to 19 (No. 26 to 30). Glycine at position 14 is achiral and no substitution was required. […] To test this possibility two peptides were synthesized No. 31 and No. 32 in Table 3. […] The cyclic peptides were detected as diagnostic ions (M+H)^+ and (M+Na)^+ in LC/MS and their presence was further confirmed by MS/MS analysis. […] The cyclic peptide produced from No. 32 has alternating D- and L-forms of amino acids (with the exception of the glycine), which gives it the potential to self-assemble into nanotube under appropriate conditions (Gadhiri 1993).
# [2] = system: Dianthus superbus PCY1-c250; experiment: In vitro assay of recombinant Dianthus superbus PCY1-c250 with presegetalin substrates, LC/MS; type: biochemical
# Sequence of Dianthus superbus PCY1-c250 (as listed by the source): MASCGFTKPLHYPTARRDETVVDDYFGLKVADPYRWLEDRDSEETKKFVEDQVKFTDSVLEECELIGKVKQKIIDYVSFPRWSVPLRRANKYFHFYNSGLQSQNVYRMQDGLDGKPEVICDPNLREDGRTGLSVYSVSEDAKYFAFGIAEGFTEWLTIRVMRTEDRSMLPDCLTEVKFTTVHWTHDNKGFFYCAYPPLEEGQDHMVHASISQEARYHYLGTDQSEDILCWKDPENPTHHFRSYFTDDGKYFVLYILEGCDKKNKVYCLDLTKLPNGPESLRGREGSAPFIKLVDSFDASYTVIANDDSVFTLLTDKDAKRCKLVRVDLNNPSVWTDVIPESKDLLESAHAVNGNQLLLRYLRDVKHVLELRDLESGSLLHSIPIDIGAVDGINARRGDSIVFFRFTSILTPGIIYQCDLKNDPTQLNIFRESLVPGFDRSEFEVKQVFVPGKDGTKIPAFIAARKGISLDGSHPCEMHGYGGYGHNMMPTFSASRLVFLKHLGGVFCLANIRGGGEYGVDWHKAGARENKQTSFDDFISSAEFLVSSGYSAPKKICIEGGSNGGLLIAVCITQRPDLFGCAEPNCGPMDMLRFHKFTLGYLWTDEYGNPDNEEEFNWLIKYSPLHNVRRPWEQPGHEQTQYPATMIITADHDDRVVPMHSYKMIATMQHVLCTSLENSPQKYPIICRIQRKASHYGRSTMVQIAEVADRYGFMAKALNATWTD
# Source text: as §1
# Dianthus superbus PCY1-c250 was also assayed with the alanine scan mutants and the activities were compared with those of S. vaccaria PCY1.
# [3] = system: Silene vulgaris Pcy1-c150; experiment: In vitro assay of recombinant Silene vulgaris PCY1-c150 with presegetalin A1[14,32], LC/MS; type: biochemical; conditions: 15 μg/mL presegetalin A1[14,32], 4 μg enzyme
# Sequence of Silene vulgaris Pcy1-c150 (as listed by the source): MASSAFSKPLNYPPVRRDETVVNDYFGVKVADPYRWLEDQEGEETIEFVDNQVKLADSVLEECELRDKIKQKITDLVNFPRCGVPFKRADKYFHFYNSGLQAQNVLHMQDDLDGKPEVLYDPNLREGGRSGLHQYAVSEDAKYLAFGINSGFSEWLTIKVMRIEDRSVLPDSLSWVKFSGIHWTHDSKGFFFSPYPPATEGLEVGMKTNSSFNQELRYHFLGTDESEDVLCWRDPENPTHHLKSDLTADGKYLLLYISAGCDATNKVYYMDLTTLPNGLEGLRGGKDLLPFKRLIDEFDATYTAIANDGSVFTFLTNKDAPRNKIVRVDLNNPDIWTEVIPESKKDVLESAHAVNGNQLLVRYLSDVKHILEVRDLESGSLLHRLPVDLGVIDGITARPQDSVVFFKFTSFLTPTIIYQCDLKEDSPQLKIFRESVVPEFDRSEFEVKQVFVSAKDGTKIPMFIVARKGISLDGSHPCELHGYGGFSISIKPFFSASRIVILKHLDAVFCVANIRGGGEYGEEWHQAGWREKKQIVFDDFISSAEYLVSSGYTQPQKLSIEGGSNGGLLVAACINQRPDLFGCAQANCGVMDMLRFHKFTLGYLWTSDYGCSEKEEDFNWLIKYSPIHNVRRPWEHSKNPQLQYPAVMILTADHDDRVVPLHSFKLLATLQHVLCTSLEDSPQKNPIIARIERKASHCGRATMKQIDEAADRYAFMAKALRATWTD
# Source text: as §1
Substance,cyclic peptide production by S. vaccaria PCY1 (in words) (S. vaccaria PCY1),CP (cyclic peptide product detected by LC/MS after in vitro assay) (S. vaccaria PCY1),LP (linear peptide product detected by LC/MS after in vitro assay) (S. vaccaria PCY1),cyclic peptide production by D. superbus PCY1-c1141 (in words) [1],linear peptide production by S. vaccaria PCY1 (in words) (S. vaccaria PCY1),cyclic peptide production by D. superbus PCY1-c250 (in words) [2],production of segetalin A by Silene vulgaris c150 polypeptide (in words) [3],linear peptide production by D. superbus PCY1-c250 (in words) [2],"increase in segetalin A production relative to wild type presegetalin A1[14,32] (S. vaccaria PCY1; alanine scanning mutants of C-terminal region)"
32 (GV[dP]V[dA]AFQAKDVENASAPV) [compound 32],made cyclic peptides,+,−,made cyclic peptides; also recorded: relatively more active; also recorded: higher than the activity of S. vaccaria PCY1,,,,,
31 (GV[dP]VAAFQAKDVENASAPV) [compound 31],made cyclic peptides,+,−,made cyclic peptides,,,,,
"Presegetalin A1[14,32] (GVPVWAFQAKDVENASAPV; listed as Saponaria vaccaria) [No. 1]",showed the formation of segetalin A,,,strong enzymatic activity,linear segetalin A,strong enzymatic activity,weaker than that of S. vaccaria PCY1,,
"17 (GVPVWAFQAKAVENASAPV; Presegetalin A1[14,32] D24A) [compound 17]",sensitive,+,+,,,,,,
"43 (GPIPFYGFQAKDAENASVPV; - Dianthus Precursor A[14,33]) [compound 43]",small amount of cyclic peptide production,+,−,,,,,,
"7 (AVPVWAFQAKDVENASAPV; Presegetalin A1[14,32] variant aa14 = alanine) [compound 7]",less product,+,+,,highest amount of linear peptide product,no detectable cyclic peptide,,a large amount of linear peptide was detected,
"3 (GVPVWAFQAKDVENA; Presegetalin A1[14,28]) [compound 3]",,−,+,,almost equivalent to the linear peptide formed from the WT substrate,,,,
"5 (GVPVWAF; Presegetalin A1[14,20]) [compound 5]",,−,−,,,,,,
"38 (GVKYAFQPKDSENASAPV; Presegetalin G1[14,31]) [compound 38]",cyclic peptide products were detected from all of them,+,−,,,,,,
"34 (GVPAAAVWAFQAKDVENASAPV; Presegetalin A1[14,32] ins 16AAA17) [compound 34]",produced the expected 9 amino acid cyclic peptide,+,+,,linear peptide products,,,,
"22 (GVPVWAFQAKDVENAAAPV; Presegetalin A1[14,32] S29A) [compound 22]",relatively higher amounts of segetalin A than that produced from WT substrate,+,+,,,,,,30%
"Presegetalin A1[14,32]W18w (GVPV[dW]AFQAKDVENASAPV) [No. 29]",relatively weakly converted to cyclic peptide,,,,,,,,
"23 (GVPVWAFQAKDVENASVPV; Presegetalin A1[14,32] A30V) [compound 23]",,+,+,,,,,,
"40 (GLPGWPFQAKDVENASAPV; Presegetalin L1[14,32]) [compound 40]",cyclic peptide products were detected from all of them,+,−,,,,,,
"11 (GVPVAAFQAKDVENASAPV; Presegetalin A1[14,32] variant aa18 = alanine) [compound 11]",,+,−,,,relatively more cyclic peptide than did S. vaccaria PCY1,,,
"6 (GVPVWA; Presegetalin A1[14,19]) [compound 6]",,−,,,,,,,
"13 (GVPVWAAQAKDVENASAPV; Presegetalin A1[14,32] F20A) [compound 13]",sensitive,+,+,,,,,,
